Assay results published in patent US9555016B2, “Lytic agents for use in treating intravascular clots” (priority 2013, dated 2017).
Where a name gives a salt, the structure may show the parent alone.

Key:
[1] = test system: acute clots, formed from ovine blood; assay: Mechanical compression testing (Texture Analyzer) of acute clots; conditions: acute blood clot, after 1 hour of treatment
Protocol: (§1) Acute clots, formed from ovine blood, were formed and treated with guanidine hydrochloride. Clots were formed following the general procedures set forth in Luo et al., “Creation Of Fibrinogen-Enhanced Experimental Blood Clots To Evaluate Mechanical Thrombectomy Devices For Treatment Of Acute Stroke: An In Vitro Study,” J. Vase. Interv. Radiol. 2012 August; 23(8): 1077-83. Briefly, ovine blood was contacted with about […] thrombin and about 25 mM calcium chloride. Additional acute clots were formed where about 40 mg/ml fibrinongen was first added to the ovine blood.
Guanidine chloride at concentrations of 6 M and 12 M in 0.9% sodium chloride were added to the clots, with untreated clots and clots treated with 0.2 mg/ml tPA used as controls.
The clots were subjected to mechanical testing to determine the effects of the guanidine chloride on the hardness of the clot, as well as its elasticity and lytic resistance. Briefly, a Texture Analyzer manufactured by Texture Technologies Corporation, running Exponent Software from Texture Technologies Corporation was used. […] Clot samples having a thickness of about 1 mm were prepared and placed underneath the probe, until the probe was about 3 mm above the sample surface. The Texture Analyzer subjected the sample to a 0.5 mm compression test, and then a 1 mm compression test. […]

[2] = test system: chronic clots, formed of collagen; assay: Gravimetric testing of lytic resistance of chronic collagen clots
Protocol: Gravimetric testing to determine lytic resistance of the clots was carried out as follows. Briefly, an incubation shaker was heated to about 37° C. Clots were allowed to rest at a temperature of about 4° C. for 24 hours prior to testing. About 200-300 mg of clot samples were weighed out, with 1 sample placed per well in a 24 well plate. Weights were recorded. About 1 ml of each solution was placed in each well. The plate was then placed into the incubation shaker and shaken at 160 rpm for 1 hour and 3 hours. The weight was recorded at each time point. Lytic resistance was defined as follows, as the percent clot remaining: [formula] Chronic clots, formed of collagen, were formed and treated with guanidine hydrochloride. Chronic collagen clots were formed by reverse dialysis, as generally disclosed in Knight, et al., “In vitro formation by reverse dialysis of collagen gels containing highly oriented arrays of fibrils,” J. Biomed. Mater. Res., 41, 185-191 (1998). Briefly, about 1.5 grams collagen was combined with about 45 ml distilled water and 5 ml of 0.5 M acetic acid. A dialysis solution was prepared with 2% polyethylene glycol (PEG) in about 10 mM of a Tris base buffer (2000 ml distilled water added to 40 grams PEG and 2.422 grams Tris Base (also known as Trimethylol Aminomethane, Tris(hydroxymethyl)aminomethane)). […]

[3] = test system: acute clots, formed from ovine blood; assay: Gravimetric testing of lytic resistance of acute clots
Protocol: as §1
Gravimetric testing to determine lytic resistance of the clots was carried out as follows. Briefly, an incubation shaker was heated to about 37° C. Clots were allowed to rest at a temperature of about 4° C. for 24 hours prior to testing. About 200-300 mg of clot samples were weighed out, with 1 sample placed per well in a 24 well plate. Weights were recorded.
Guanidine hydrochloride solutions were prepared as follows:
1. 12 M Guanidine hydrochloride (GH): 22.93 g GH+20 ml 0.9% sodium chloride
2. 6 M GH: 10 ml 12 M GH+10 ml 0.9% sodium chloride
3. 3 M GH: 10 ml 6 M GH+10 ml 0.9% sodium chloride
4. 1 M GH: 10 ml 3 M GH+20 ml 0.9% sodium chloride
6. 0.5 M GH: 10 ml 1 M GH+10 ml 0.9% sodium chloride
About 1 ml of each solution was placed in each well. […] The weight was recorded at each time point. […]

[4] = test system: chronic clots, formed of collagen; assay: Mechanical compression testing (Texture Analyzer) of chronic collagen clots
Protocol: The clots were subjected to mechanical testing to determine the effects of the guanidine chloride on the hardness of the clot, as well as its elasticity and lytic resistance. Briefly, a Texture Analyzer manufactured by Texture Technologies Corporation, running Exponent Software from Texture Technologies Corporation was used. […] Clot samples having a thickness of about 1 mm were prepared and placed underneath the probe, until the probe was about 3 mm above the sample surface. The Texture Analyzer subjected the sample to a 0.5 mm compression test, and then a 1 mm compression test. Chronic clots, formed of collagen, were formed and treated with guanidine hydrochloride. Chronic collagen clots were formed by reverse dialysis, as generally disclosed in Knight, et al., “In vitro formation by reverse dialysis of collagen gels containing highly oriented arrays of fibrils,” J. Biomed. Mater. Res., 41, 185-191 (1998). Briefly, about 1.5 grams collagen was combined with about 45 ml distilled water and 5 ml of 0.5 M acetic acid. A dialysis solution was prepared with 2% polyethylene glycol (PEG) in about 10 mM of a Tris base buffer (2000 ml distilled water added to 40 grams PEG and 2.422 grams Tris Base (also known as Trimethylol Aminomethane, Tris(hydroxymethyl)aminomethane)). […] Fibril formation was allowed to proceed over a period of about 48 hours, at which time the collagen was collected and stored in about 10 mM Tris-base solution at a pH of about 7.4 and stored at about 4° C. Additional chronic clots were prepared by combining collagen gels produced as above, and then adding genipin thereto (about 5 mM genipin solution in about 0.9% sodium chloride). Chronic clots thus formed were subjected to the hardness and gravimetric tests described above in Example 1.

[5] = chronic clots prepared without genipin

N=C(N)N [guanidine hydrochloride]
effect on hardness (summary, FIG. 2) [1]: significant effect on the hardness | lytic resistance versus molar concentration ([2]; chronic clots, increasing molar concentration of guanidine hydrochloride): lytic resistance decreased upon increase in the molar concentration | dissolution of clot (summary) ([2]; chronic collagen-based clots, after 1 hour, even at low concentrations): dissolve most of the collagen clot models | clot weight (summary of gravimetric testing) ([3]; acute blood-based clot models, increased concentrations): did not show a decrease in weight | lytic resistance versus molar concentration ([3]; acute clots, increasing molar concentration of guanidine hydrochloride): lytic resistance decreased upon increase in the molar concentration | elasticity after treatment [4, 5]: dissolved/broken down to a point where elasticity could not be measured | hardness after treatment [4, 5]: dissolved/broken down to a point where hardness could not be measured | effect on hardness (summary, FIG. 3) ([4]; chronic collagen clots): significant decrease in hardness
